Molecules are shown by their SMILES. Some results are limits rather than exact numbers.

The melting point is the temperature, or range, at which the solid turns liquid.

Molecule `CCOC(=O)C1=C(C)Nc2ccnc(OC(C)C)c2C1c1cccc2nonc12` (configuration not stated) showed a melting point of 134 to 136 °C.
Regarding `COc1ccc(S(=O)(=O)c2ncoc2C(C)C)cc1`, the melting point was 98 to 100 °C.
The result for `CCCCCCCCCCCCCCCc1ccc(C=O)c(O)c1` reads 50 to 54 °C.
`N#Cc1cccc(CC(NC(=O)c2cc3cc(Cl)ccc3[nH]2)C(=O)N2CCSC2)c1` (configuration not stated) showed a melting point of 183 to 184 °C.
`CCOC(=O)C=C1CCc2c(c(OC)c(OC)c(OC)c2OC)CC1` showed a melting point of 61 to 63 °C.
In the case of `COc1cc(NC(=O)Oc2ccccc2)ccc1S(=O)(=O)n1c(=O)n(C2CCCCC2)c2cc(Cl)ccc21`, the melting point came out at 236 °C.
In turn, `COc1ccc(S(=O)(=O)N2c3ccc(Br)cc3-c3ccccc3C2c2ccccc2)cc1` (configuration not stated) displayed a melting point of 209 to 211 °C.
Turning to `CN(C)C=C(C#N)C(=O)c1ccc(-n2ccnc2)cc1`, the melting point was 165 °C.
For `COC(=O)C(=O)c1oc2cccc(OCc3ccc(F)cc3)c2c1O`, the melting point was 138 to 141 °C.
Turning to `O=C(NCCCCN1CCCC1)Nc1snc(OCc2c(F)cc(Br)cc2F)c1C(=O)O`, the melting point came to 208 °C.
`Clc1ccc(CN2CCC(c3cc(-c4cccc(Cl)c4)[nH]n3)CC2)cc1` registered a melting point of 156 to 157 °C.
On to `CN1CCN(Cc2ccc(C(=O)O)cc2)CC1`, for which the melting point lay in the range of 310 to 312 °C.
To `O=C(Nc1ccccc1N1CCc2ccccc21)c1ccco1` belongs 99 to 102 °C; to `CNC(=O)c1ccc(N2CCN(Cc3cnc4c(c3)[nH]c(=O)n3cccc43)CC2)c(C)c1`, 264 to 266 °C.
As for `CC1(C)CCC(C)(C)c2cc3c(cc21)CCC=C3Cc1ccc(C(=O)O)cc1`, the melting point was 212 to 214 °C.
Molecule `CCOC(=O)c1c(-c2ccc(C)cc2)nc2ccccn12` came in with a melting point of 88 °C.
The molecule `CCN1c2ncc(COc3ccc(F)cc3)cc2C(=O)N(C)c2ccc(Cl)nc21` came in with a melting point of 143 to 144 °C.
To `CCOC(=O)C1CSC(COc2ccccc2OC)N1` (configuration not stated) belongs 50 °C; to `COC(=O)C1CN(C(=O)c2cc(OC)c(OC)c(OC)c2)CCN1C(=O)OC(C)(C)C` (configuration not stated), 163 to 164 °C.
To `COc1ccc2c(OC(C)C)c(C(N)=O)ccc2c1` belongs 183 to 184 °C.
In turn, `CC(C)(C)OC(=O)Nc1ccc(-c2ccccc2)cc1NC(=O)CC(=O)c1sccc1Cl` gave a melting point of 165 °C.
To `COc1cccc(Nc2n[nH]c3ncn(-c4cccc(Cl)c4)c(=N)c23)c1` belongs 190 to 192 °C; to `O=C(O)[C@H](CC(=NO)c1ccc2oc3ccccc3c2c1)NC(=O)C(F)(F)F`, 128 to 130 °C.
Turning to `O=C1N(Cc2cn(C(c3ccccc3)(c3ccccc3)c3ccccc3)cn2)CCN1c1cccc(Cl)c1`, the melting point was in the range of 162 to 166 °C.
To `CCOC(=O)C1CCc2cc([N+](=O)[O-])ccc2O1` (configuration not stated) belongs 80.8 °C; to `NC(=O)c1cc(F)cc(-c2cccc3cc(Cc4cc(F)cc(Cl)c4)sc23)c1`, 186 to 187 °C.
To `COc1cc(C)c(C(=O)c2c(Cl)cncc2Cl)c(OC)c1OC` belongs 109 to 111 °C; to `O=C1C(c2ccccc2)=C(c2ccccc2)C(=O)N1c1cccc(F)c1`, 157 to 158 °C; to `COCC1OC(n2cnc3c(NC4CCCC4)nc(Cl)nc32)C(O)C1O` (configuration not stated), 124 to 126 °C.
To `CCCc1nn(C)c2c(=O)n(CCOc3ccc(SC(C)(C)C(=O)OCC)cc3)c(C)nc12` belongs 106 to 108 °C.
Turning to `CCCCCCOc1cc(N(CC)CC)ccc1C1(c2c(C)n(CC)c3ccccc23)OC(=O)c2cccnc21` (configuration not stated), the melting point is 154 to 156 °C.
The result for `Nc1nc(N)nc(C2CCN(C(=O)c3ccccc3)CC2)n1` reads 246 to 248 °C.
Molecule `CCCc1nc(C(C)(C)O)c(C(=O)O)n1Cc1ccc(-c2ccccc2-c2nnn[nH]2)cc1` came in with a melting point of 166 to 169 °C.
The molecule `CCOC(=O)CNc1ncccc1NC(=O)c1ccc(F)cc1` showed a melting point of 127 to 128 °C.
Consider `CCCn1cc2c(C3C(=O)Nc4ccc(Br)cc43)nc(NCC3CCCN3)nc2n1` (configuration not stated), for which the melting point lay within 286 to 293 °C.
Regarding `O=C(O)COc1c(Cl)cc(F)cc1Cl`, the melting point fell in the range of 155 to 158 °C.
`CC(C)c1cc(C(=O)CNc2ccc(C(=O)O)cc2)oc1C(C)C` gave a melting point of 184 to 186 °C.
Consider `C[Si](C)(C)CCCNc1ccc(C(=O)O)cc1`, for which the melting point lay within 164 to 165 °C.
`CCOC(Cn1cc[nH]c1=O)c1ccc(OC)c(OC)c1` (configuration not stated) gave a melting point of 134 °C.
`C[C@]12CC[C@H]3[C@@H](CCC4=CC(=O)CC[C@@]43COC(=O)C34CC5CC(CC(C5)C3)C4)[C@@H]1CCC2=O` showed a melting point of 161 to 163 °C.
On to `NC(=O)c1cc2cc(N3CCNCC3)ccc2o1`, for which the melting point lay in the range of 252 to 255 °C.
`COc1ccc(CNc2cc(C(N)=O)c([N+](=O)[O-])cc2[N+](=O)[O-])cc1Cl`: the melting point is 180 to 182 °C.
As for `Fc1ccc(F)c(N=C2CCCc3cc4c(nc32)C(=Nc2c(F)cccc2F)CCC4)c1`, the melting point lay in the range of 145 to 150 °C.
To `O=C(NO)[C@H]1CN(C(=O)Nc2ccccc2)CCN1S(=O)(=O)c1ccc(-c2ccc(F)cc2)s1` belongs 187 to 188 °C.
Take `Cn1cncc1C(O)(c1ccc(F)cc1)c1ccc2c(c1)c(-c1cccc(Cl)c1)nc1nnnn12` (configuration not stated): the melting point came to 200 °C.
The result for `CCCCCCOCCCCCCCCCCCSCCCO` reads 27 to 29 °C; that for `Clc1ccc(-c2ccc(C=CC3COC4(CCCCC4)OO3)cc2)cc1` (configuration not stated), 109 to 111 °C; that for `CN(NC(=O)c1ccc(C#N)cc1)C(=O)OC(C)(C)C`, 179 to 181 °C.
The result for `COc1cc(C(=O)CCN(C)C)cc(OC)c1OC` reads 45 to 47 °C.
The result for `Nc1c(F)c(F)c(F)c(F)c1NC(=S)Nc1c(Cl)cccc1Cl` reads more than 300 °C; that for `COC[C@H]1CN(c2ccc([C@H]3CC[C@H](OCC#N)CC3)cc2)C(=O)O1`, 43 to 45 °C; that for `COn1c(C(C)(C)C)nc2c(N)nc3ccccc3c21`, 195 to 197 °C.
Consider `Cc1ccc(-c2[nH]c(-c3ccncc3)nc2C(=O)Nc2nccs2)cc1`, for which the melting point was more than 250 °C.
Regarding `c1ccc(-c2nn3c(c2-c2ccc4nsnc4c2)CCC3)nc1`, the melting point was in the range of 184 to 186 °C.
The result for `NS(=O)(=O)c1ccc(C2CCN(c3ccncc3)CC2)cc1` reads 295 °C.
The molecule `CSCS[C@H](C)[C@](O)(Cn1cncn1)c1ccc(Cl)cc1` had a melting point of 163 to 164 °C.
`CCON=C(CC)C1=C(OC(=O)c2ccccc2)CC(c2c(C)cc(C)cc2C)CC1=O` (configuration not stated): the melting point fell in the range of 94 to 95.5 °C.
With `N#Cc1ccc(C(=O)c2ccc(OC3OCC(O)C(O)C3O)cc2)cc1` (configuration not stated), the melting point came to 189 °C.
To `CN(C)C1CCc2[nH]c3cc(O)ccc3c2C1` (configuration not stated) belongs 286 to 288 °C; to `CC(=O)Nc1c(C(=O)c2cccc(C)c2)[nH]c2cc(Cl)ccc12`, 96 to 100 °C.
`CCCC(NC(=O)CN1C(=O)N(c2ccc(C)cc2)C2(CCCCC2)C1=O)c1ccccc1` (configuration not stated) displayed a melting point of 208 to 210 °C.
In turn, `Cc1ccccc1NC(C(=O)O)c1c(Cl)ccc(Cl)c1Cl` (configuration not stated) had a melting point of 193 °C.

The record behind these values is a melting point compilation (Tetko et al.; mined from patent text by program, amines drawn as free bases though some values may be those of a salt).
